Among the data in patent US9790209B2, “Kinase inhibitors” (Respivert Limited, priority 2012, dated 2017) are IC50, LP inflammation and Ulcer grade values, retold here.

One test concerns PBMCs. Kind of test: LPS-induced TNFα/IL-8 release in PBMC cells. In kind it is cell-based. The note with it: Homo sapiens, LPS-stimulated PBMCs, IL-8, read-out: IC50 Values for Inhibition of Cytokine Release PBMCs IL-8. On the procedure:
Peripheral blood mononuclear cells (PBMCs) from healthy subjects are separated from whole blood using a density gradient (Lymphoprep, Axis-Shield Healthcare). The PBMCs are seeded in 96 well plates and treated with compounds at the desired concentration for 2 hours before addition of 1 ng/mL LPS (Escherichia Coli 0111:B4 from Sigma Aldrich) for 24 hours under normal tissue culture conditions (37° C., 5% CO2). The supernatant is harvested for determination of IL-8 and TNFα concentrations by sandwich ELISA (Duo-set, R&D systems) and read on the fluorescence microplate reader (Varioskan® Flash, ThermoFisher Scientific). The concentration at 50% inhibition (IC50) of IL-8 and TNFα production is calculated from the dose response curve.

Another test concerns the target GSK3α (Homo sapiens (Human), UniProt P49840). The experiment in a line: GSK 3α enzyme inhibition (Method 2), Z-LYTE FRET. In kind it is biochemical. On the procedure:
The enzyme inhibitory activities of compounds disclosed herein are determined by FRET using synthetic peptides labelled with both donor and acceptor fluorophores (Z-LYTE, Invitrogen Ltd., Paisley, UK).
The inhibitory activities of compounds of the invention against the GSK 3α enzyme isoform (Invitrogen), are evaluated by determining the level of activation/phosphorylation of the target peptide. The GSK3-α protein (500 ng/mL, 2.5 μL) is mixed with the test compound (2.5 μL at either 4 μg/mL, 0.4 μg/mL, 0.04 μg/mL, or 0.004 μg/mL) for 2 hr at RT. The FRET peptide (8 μM, 2.5 μL), which is a phosphorylation target for GSK3α, and ATP (40 μM, 2.5 μL) are then added to the enzyme/compound mixture and the resulting mixture incubated for 1 hr. Development reagent (protease, 5 μL) is added for 1 hr prior to detection in a fluorescence microplate reader (Varioskan® Flash, ThermoFisher Scientific).
In all cases, the site-specific protease cleaves non-phosphorylated peptide only and eliminates the FRET signal. Phosphorylation levels of each reaction are calculated using the ratio of coumarin emission (donor) over fluorescein emission (acceptor), for which high ratios indicate high phosphorylation and low ratios indicate low phosphorylation levels. The percentage inhibition of each reaction is calculated relative to non-inhibited control and the 50% inhibitory concentration (IC50 value) is then calculated from the concentration-response curve.
This method follows the same steps as Method 1 above, but utilises a shorter period of mixing of the test compound (105 minutes instead of 2 hours) with the GSK3-α protein.

Test [1] deals with TNBS-induced colitis in mice. The experiment in a line: TNBS-induced colitis in mice. More on the design: Ulcer grade / LP inflammation: scale not given here. In kind it is in vivo. The note with it: Experiment 1, 2.5 mg/kg oral BID, 2 days. On the procedure:
On Day 0 of the study TNBS (200 μL) is administered intra-colonically via a plastic catheter followed by BID dosing of the vehicle, reference or test compound for 2 or 4 days. During the study animals are weighed every day and stool observations are made and recorded as a score, based on stool consistency. At the time of sacrifice on Day 2 (or Day 4) the large intestine is removed and the length and weight recorded. Sections of the colon are taken for either MPO analysis to determine neutrophil infiltration or for histopathology involving scoring to determine disease severity.

pIC50: −log10 of the molar value.

GSK3α, sequence (P49840 whole entry): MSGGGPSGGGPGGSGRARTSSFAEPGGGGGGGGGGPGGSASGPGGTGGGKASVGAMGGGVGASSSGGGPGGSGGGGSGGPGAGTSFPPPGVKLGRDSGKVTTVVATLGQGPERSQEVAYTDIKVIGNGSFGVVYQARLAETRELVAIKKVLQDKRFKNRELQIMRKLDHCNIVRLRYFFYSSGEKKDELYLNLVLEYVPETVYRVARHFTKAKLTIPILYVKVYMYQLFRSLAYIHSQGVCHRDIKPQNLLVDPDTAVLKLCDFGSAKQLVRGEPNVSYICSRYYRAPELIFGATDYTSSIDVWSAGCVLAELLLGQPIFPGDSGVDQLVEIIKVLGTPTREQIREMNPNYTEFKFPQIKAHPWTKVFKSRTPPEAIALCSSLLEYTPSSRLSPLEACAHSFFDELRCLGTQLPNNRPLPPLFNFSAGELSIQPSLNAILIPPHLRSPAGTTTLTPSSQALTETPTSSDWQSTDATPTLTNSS

Consider `C#CC(C)(C)c1cc(NC(=O)Nc2ccc(Oc3ccnc(Nc4cccc(OCCN5CCOCC5)c4)n3)c3ccccc23)n(-c2ccc(C)cc2)n1` [Example 5, 1-(3-(2-Methylbut-3-yn-2-yl)-1-(p-tolyl)-1H-pyrazol-5-yl)-3-(4-((2-((3-(2-morpholinoethoxy)phenyl)amino)pyrimidin-4-yl)oxy)naphthalen-1-yl)urea], for which the pIC50 (in general, the negative decadic logarithm of the IC50, by convention in mol/L) in the test on PBMCs was 9.00; against GSK3α, 6.22.

Consider `C#CC(C)(C)c1cc(NC(=O)Nc2ccc(Oc3ccnc(Nc4cc(OCCN(C)C)ccn4)n3)c3ccccc23)n(-c2ccc(C)cc2)n1` [Example 11, 1-(4-((2-((4-(2-(Dimethylamino)ethoxy)pyridin-2-yl)amino)pyrimidin-4-yl)oxy)naphthalen-1-yl)-3-(3-(2-methylbut-3-yn-2-yl)-1-(p-tolyl)-1H-pyrazol-5-yl)urea], for which the pIC50 with PBMCs was 7.97; at GSK3α, less than 5.00.

As to `C#CC(C)(C)c1cc(NC(=O)Nc2ccc(Oc3ccnc(Nc4cc(C)c5[nH]ncc5c4)n3)c(Cl)c2Cl)n(-c2ccc(C)cc2)n1` [Example 9, 1-(2,3-Dichloro-4-((2-((7-methyl-1H-indazol-5-yl)amino)pyrimidin-4-yl)oxy)phenyl)-3-(3-(2-methylbut-3-yn-2-yl)-1-(p-tolyl)-1H-pyrazol-5-yl)urea], the values for the pIC50 in the test with PBMCs and on GSK3α were 8.12 and less than 5.00, respectively.

Regarding `C#CC(C)(C)c1cc(NC(=O)Nc2ccc(Oc3ccnc(Nc4cc(OC)cc(C(=O)NCCN5CCOCC5)c4)n3)c3ccccc23)n(-c2ccc(C)cc2)n1` [Example 4, 3-Methoxy-5-((4-((4-(3-(3-(2-methylbut-3-yn-2-yl)-1-(p-tolyl)-1H-pyrazol-5-yl)ureido)-naphthalen-1-yl)oxy)pyrimidin-2-yl)amino)-N-(2-morpholinoethyl)benzamide], the results for the pIC50 with PBMCs and at GSK3α were 9.30 and 6.27, respectively.

Take `C#CC(C)(C)c1cc(NC(=O)Nc2ccc(Oc3ccnc(Nc4cccc(OCCOCCOCCOC)n4)n3)c3ccccc23)n(-c2ccc(C)cc2)n1` [Example 17, 1-(4-((2-((6-(2-(2-(2-Methoxyethoxy)ethoxy)ethoxy)pyridin-2-yl)amino)pyrimidin-4-yl)oxy)naphthalen-1-yl)-3-(3-(2-methylbut-3-yn-2-yl)-1-(p-tolyl)-1H-pyrazol-5-yl)urea]: the pIC50 was 7.52 with PBMCs and less than 5.00 against GSK3α.

For `CCCC1O[C@@H]2C[C@H]3[C@@H]4CCC5=CC(=O)C=C[C@]5(C)[C@H]4[C@@H](O)C[C@]3(C)[C@]2(C(=O)CO)O1` (some centres unmarked) [Budesonide, reference compound], the LP inflammation in test [1] (TNBS + Vehicle 3.9 ± 0.3) is on record as 2.5 ± 0.4. Also, the Ulcer grade in test [1] (TNBS + Vehicle 4.0 ± 0.5) turned out to be 2.9 ± 0.6.

As to `C#CC(C)(C)c1cc(NC(=O)Nc2ccc(Oc3ccnc(Nc4cccc(OCCN(C)C)c4)n3)c3ccccc23)n(-c2ccc(C)cc2)n1` [Example 6, 1-(4-((2-((3-(2-(Dimethylamino)ethoxy)phenyl)amino)pyrimidin-4-yl)oxy)naphthalen-1-yl)-3-(3-(2-methylbut-3-yn-2-yl)-1-(p-tolyl)-1H-pyrazol-5-yl)urea], the pIC50 was 9.22 in the test on PBMCs and 6.61 against GSK3α.
